# Measured values reported in article PMC1972348, “Pharmacokinetics and cytotoxicity of RSU-1069 in subcutaneous 9L tumours under oxic and hypoxic conditions” (British Journal of Cancer, 1991).
# Where two headings read alike, the source gives them in different places.
# Columns and labels:
# [1] = set-up: method as in Wong et al., 1989; 1990; settings: sc 9L tumours, ref Wong et al., 1989; 1990; cited from earlier work
# sc 9L tumour cells [2] = test system: sc 9L tumour cells; set-up: method as in Wong et al., 1989; 1990; settings: Table I, clamped sc 9L tumours, ref Wong et al., 1989; 1990; cited from earlier work
# [3] = Excerpt: (§1) Br 1 acr(91,6,4448?McilnPesLd,19 Pharmacokinetics and cytotoxicity of RSU-1069 in subcutaneous 9L tumours under oxic and hypoxic conditions K-H. Wong',*, C.J. Koch2, C. A. Wallen' & K.T. Wheeler' 'Experimental Radiation Oncology, Department of Radiology, Bowman Gray School of Medicine, Winston-Salem, North Carolina 27103; and 2Department of Radiation Oncology, University of Pennsylvania, Philadelphia, Pennsylvania 19104, USA. Summary The acute toxicity, pharmacokinetics and hypoxic cytotoxicity of RSU-1069 were investigated using the subcutaneous (sc) rat 9L tumour model. The pharmacokinetics were studied after i.p. injection of RSU-1069 (20mgkg-' or 100mgkg-'). […] The 2-nitroimidazoles, originally designed as electron affinic radiosensitisers, have been reported to selectively kill hypoxic cells (Adams et al., 1980). This hypoxic cytotoxicity appears to be related to the anaerobic bioreductive metabolism of the drugs that releases reactive cytotoxic metabolites (Clark et al., 1980; Brown, 1982). By adding an alkylating group to the side chain of a 2-nitroimidazole, Adams et al. (1984a,b) postulated that a more efficient chemopotentiator and killer of hypoxic cells could be made without the compound losing its ability to sensitise hypoxic cells to ionising radiation. RSU-1069 was one of the compounds synthesised to achieve this goal. RSU-1069 has an aziridine group attached via a side chain to a 2-nitroimidazole. […] Although the ability to kill cells in vivo has been studied (Adams et al., 1984a,b; Chaplin et al., 1986; Olive et al., 1987; Cole et al., 1989; Siemann, 1989) the presence of both oxic and hypoxic cells in these tumours has made it difficult to determine if the relative efficiency of RSU-1069 for killing oxic and hypoxic cells in vivo is similar to that reported in vitro. In this report, we used the subcutaneous (sc) 9L tumour model to study the relative ability of RSU-1069 to kill oxic and hypoxic tumours cells in vivo.
# sc 9L tumour cells [4] = test system: sc 9L tumour cells; set-up: AUC30: unit not given beside the values
# Excerpt: as §1
# 9L cells = test: In vitro colony formation of 9L cells treated at defined oxygen concentrations; type: cell-based, rat
# Excerpt: Br 1 acr(91,6,4448?McilnPesLd,19 Pharmacokinetics and cytotoxicity of RSU-1069 in subcutaneous 9L tumours under oxic and hypoxic conditions K-H. Wong',*, C.J. Koch2, C. A. Wallen' & K.T. Wheeler' 'Experimental Radiation Oncology, Department of Radiology, Bowman Gray School of Medicine, Winston-Salem, North Carolina 27103; and 2Department of Radiation Oncology, University of Pennsylvania, Philadelphia, Pennsylvania 19104, USA. Summary The acute toxicity, pharmacokinetics and hypoxic cytotoxicity of RSU-1069 were investigated using the subcutaneous (sc) rat 9L tumour model. The pharmacokinetics were studied after i.p. injection of RSU-1069 (20mgkg-' or 100mgkg-'). […] The 2-nitroimidazoles, originally designed as electron affinic radiosensitisers, have been reported to selectively kill hypoxic cells (Adams et al., 1980). This hypoxic cytotoxicity appears to be related to the anaerobic bioreductive metabolism of the drugs that releases reactive cytotoxic metabolites (Clark et al., 1980; Brown, 1982). By adding an alkylating group to the side chain of a 2-nitroimidazole, Adams et al. (1984a,b) postulated that a more efficient chemopotentiator and killer of hypoxic cells could be made without the compound losing its ability to sensitise hypoxic cells to ionising radiation. RSU-1069 was one of the compounds synthesised to achieve this goal. […]
# hypoxic cells = test system: hypoxic cells; set-up: method as in Adams et al., 1984a; settings: estimated at plasma level of 2-4 µg ml-1, ref Adams et al., 1984a; cited from earlier work
# KHT and RIF tumours = test system: KHT and RIF tumours; set-up: method as in Bremner et al. (1990); settings: tumours clamped 60 min after 80 mg kg-1, ref Bremner et al. (1990); cited from earlier work
# other in vitro cells = test system: other in vitro cells; set-up: method as in Stratford et al., 1986; settings: ref Stratford et al., 1986; cited from earlier work
# [5] = KHT fibrosarcoma, ref Walton & Workman, 1988; cited from earlier work
# [6] = B16 and HX 118 melanomas, ref Deacon et al., 1986; Walling et al., 1989; cited from earlier work
# [7] = ref Horwich et al., 1986, cited from earlier work
# [8] = mice, i.p. doses of 50 and 100 mg kg-1, ref Walton & Workman (1988); cited from earlier work
# [9] = 20 mg kg-1 i.p., unclamped tumours
# [10] = 100 mg kg-1 i.p., unclamped tumours
# [11] = both doses (20 and 100 mg kg-1)
smiles,measurement,setting,value
"COCC(O)Cn1ccnc1[N+](=O)[O-] (stereo not shown) [MISO, misonidazole]",time to return to unclamped tumour level after release of the clamp,[1],about 45 min
same,AUC30,sc 9L tumour cells [2],52.6 mg·min/mL
O=[N+]([O-])c1nccn1CC(O)CN1CC1 (stereo not shown) [RSU-1069],maximum tumour/plasma ratio,"[3]; 20 mg kg-1, in 60 min",six
same,plasma elimination t1/2,[3]; 20 mg kg-1 i.p.,47.8 ± 6.3 min
same,time to peak plasma concentration,[3]; 20 mg kg-1 i.p.,about 10 min
same,time to peak tumour concentration,[3]; 20 mg kg-1 i.p.,10 min
same,peak plasma concentration,"[3]; 20 mg kg-1 i.p., rat",3 micrograms ml-1
same,peak tumour concentration,[3]; [9],4 micrograms g-1
same,tumour elimination t1/2,[3]; [9],41.9 ± 6.1 min
same,time to return to unclamped tumour concentration after release of the clamp,[3]; 100 mg kg-1,about 60 min
same,tumour/plasma ratio in clamped tumours,"[3]; 100 mg kg-1, about 90 min after clamping",0.1
same,drug concentration in clamped tumours,"[3]; 100 mg kg-1, beyond 120 min after clamping",undetectable
same,peak tumour/plasma ratio,"[3]; 100 mg kg-1, unclamped, in about 45 min",exceeded four
same,time to peak plasma concentration,[3]; 100 mg kg-1 i.p.,approximately 25 min
same,peak plasma concentration,"[3]; 100 mg kg-1 i.p., rat",40 micrograms ml-1
same,tumour elimination t1/2,"[3]; 100 mg kg-1 i.p., tumour clamped 30 min after administration",10.9 ± 1.4 min
same,plasma elimination t1/2,"[3]; 100 mg kg-1 i.p., tumour unclamped",39.3 ± 11.1 min
same,peak tumour concentration,[3]; [10],50 micrograms g-1
same,time to peak tumour concentration,[3]; [10],30 min
same,tumour elimination t1/2,[3]; [10],36.1 ± 9.6 min
same,constant unclamped tumour/plasma ratio after the maximum,[3]; [11],about 2
same,maximum unclamped tumour/plasma ratio,[3]; [11],4-6
same,elimination from clamped sc 9L tumours faster than MISO or SR-2508,"[3]; rat, in vivo",four
same,peak plasma concentration at 100 mg kg-1 relative to 20 mg kg-1,"[3]; rat, in vivo",about 13 times
same,peak tumour concentration at 100 mg kg-1 relative to 20 mg kg-1,"[3]; rat, in vivo",about 13 times
same,cell survival,"sc 9L tumour cells [4]; 20 mg kg-1, clamped tumours",approximately 25%
same,cell survival,"sc 9L tumour cells [4]; 20 mg kg-1, unclamped tumours",~100%
same,cell-kill kinetics as a function of clamping time,"sc 9L tumour cells [4]; 50 mg kg-1, clamped for various times",little additional cell kill was achieved after 40 min of clamping
same,surviving fraction,"sc 9L tumour cells [4]; 50 mg kg-1, hypoxic (clamped 2 h)",~0.001
same,surviving fraction,"sc 9L tumour cells [4]; 50 mg kg-1, oxic (unclamped)",about 0.6
same,AUC30,"sc 9L tumour cells [4]; rat, in vivo",0.15
same,efficiency for killing hypoxic sc 9L tumour cells in situ relative to misonidazole or SR2508,"sc 9L tumour cells [4]; rat, in vivo, sc",300-1000 fold
same,"sensitiser enhancement ratio (SER), hypoxic vs oxic sc 9L cells in vivo","sc 9L tumour cells [4]; rat, in vivo, sc",4.8
same,SER in vitro,9L cells; 2.1% O2 vs less than 7.5 x 10(-3)% O2,approximately 50
same,SER in vitro,9L cells; 21% O2 vs less than 7.5 x 10(-3)% O2,approximately 100
same,radiosensitising enhancement ratio,hypoxic cells,1.2
same,increase in time for tumours to reach four times their treatment size,KHT and RIF tumours,3-4 fold
same,SER in vitro,other in vitro cells,≤ 100
same,tumour/plasma ratio,[5],0.2-0.4
same,tumour/plasma ratio,[6],3.7-4
same,peak plasma level,"[7]; clinical trial, after a 70 mg kg-1 dose (so in the source)",2 to 4 µg/mL
same,dose limited by nongenotoxic side-effects such as emesis,[7]; phase I clinical trial,less than 70 mg m-2
same,difference in the volume of distribution,[8],2 fold
same,increase in the elimination t1/2,[8],37%
O=C(Cn1ccnc1[N+](=O)[O-])NCCO [SR-2508],time to return to unclamped tumour level after release of the clamp,[1],about 90 min
same,AUC30,sc 9L tumour cells [2],44.9 mg·min/mL
